# Experimental data reported in US12195490B2, “STRAD-binding agents and uses thereof” (The Regents of the University of California, priority 2020, dated 2025).
# Target: T1, LKB1 (Homo sapiens, UniProt Q15831+Q7RTN6)
# T1 sequence (Q15831 1-433): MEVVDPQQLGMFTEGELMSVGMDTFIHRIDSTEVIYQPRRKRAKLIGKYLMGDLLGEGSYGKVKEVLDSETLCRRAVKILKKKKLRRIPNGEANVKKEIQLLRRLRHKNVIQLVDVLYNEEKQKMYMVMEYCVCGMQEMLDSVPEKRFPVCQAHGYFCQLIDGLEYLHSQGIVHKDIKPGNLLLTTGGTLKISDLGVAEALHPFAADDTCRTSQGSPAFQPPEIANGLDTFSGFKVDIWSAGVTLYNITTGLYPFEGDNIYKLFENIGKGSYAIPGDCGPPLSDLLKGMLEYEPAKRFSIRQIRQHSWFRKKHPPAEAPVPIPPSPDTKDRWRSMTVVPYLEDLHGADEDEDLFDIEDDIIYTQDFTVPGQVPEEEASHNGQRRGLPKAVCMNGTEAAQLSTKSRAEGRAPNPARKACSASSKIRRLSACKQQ
# T1 sequence (Q7RTN6 1-431): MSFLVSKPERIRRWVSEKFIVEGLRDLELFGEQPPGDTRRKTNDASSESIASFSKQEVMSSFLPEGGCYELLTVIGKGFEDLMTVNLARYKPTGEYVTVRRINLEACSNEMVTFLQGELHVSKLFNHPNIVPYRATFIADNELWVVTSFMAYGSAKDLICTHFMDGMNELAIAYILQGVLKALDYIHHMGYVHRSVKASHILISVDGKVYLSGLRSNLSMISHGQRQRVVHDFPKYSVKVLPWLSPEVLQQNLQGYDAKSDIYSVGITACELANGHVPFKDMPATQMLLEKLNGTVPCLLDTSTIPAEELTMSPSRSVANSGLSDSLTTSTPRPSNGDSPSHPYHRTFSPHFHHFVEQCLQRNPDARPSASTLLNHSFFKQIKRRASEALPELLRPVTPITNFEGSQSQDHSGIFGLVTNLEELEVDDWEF
# T1 sequence (Q9Y376 1-341 partner): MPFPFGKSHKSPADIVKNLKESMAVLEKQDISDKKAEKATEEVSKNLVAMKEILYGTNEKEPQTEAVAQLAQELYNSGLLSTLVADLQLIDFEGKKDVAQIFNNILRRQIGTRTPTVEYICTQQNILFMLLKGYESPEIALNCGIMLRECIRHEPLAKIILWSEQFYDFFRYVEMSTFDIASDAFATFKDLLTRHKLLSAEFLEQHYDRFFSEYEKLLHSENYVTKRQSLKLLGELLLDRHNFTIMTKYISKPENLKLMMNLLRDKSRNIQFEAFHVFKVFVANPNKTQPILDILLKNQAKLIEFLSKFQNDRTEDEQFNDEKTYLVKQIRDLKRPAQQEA
# Experiment: in vitro LKB1 functional activity
# Assay type: biochemical
# Conditions: APA analogs
row,SMILES,LKB1 % Act. Increase
1,"CCO[P@](C)(=O)CS(=O)(=O)c1ccc(NC(=O)c2nc(-c3ccc(C)cc3)cnc2N)cc1 [SU20668-0518, (S)-ethyl (4-(3-amino-6-p-tolylpyrazine-2-carboxamido)phenylsulfonyl)methyl(methyl)phosphinate]",B (B=399-2000%)
2,"COP(=O)(CS(=O)(=O)c1ccc(NC(=O)c2nc(-c3cc(F)ccc3Cl)cnc2N)cc1)OC [SU20668-0449, dimethyl (4-(3-amino-6-(2-chloro-5-fluorophenyl)pyrazine-2-carboxamido)phenylsulfonyl)methylphosphonate]",C (C=199-1000%)
3,"CCOP(=O)(OCC)c1ccc(NC(=O)c2nc(-c3ccc(C)cc3)cnc2N)cc1 [SU20668-0211, diethyl 4-(3-amino-6-p-tolylpyrazine-2-carboxamido)phenylphosphonate]",D (D=<1000%)
4,"COP(=O)(CS(=O)(=O)c1ccc(NC(=O)c2nc(-c3cc(F)ccc3C#N)cnc2N)cc1)OC [SU20668-0446, dimethyl (4-(3-amino-6-(2-cyano-5-fluorophenyl)pyrazine-2-carboxamido)phenylsulfonyl)methylphosphonate]",D (D=<1000%)
5,"COP(=O)(CS(=O)(=O)c1ccc(NC(=O)c2nc(-c3ccc(S(C)(=O)=O)cc3)cnc2N)cc1)OC [SU20668-0447, dimethyl (4-(3-amino-6-(4-(methylsulfonyl)phenyl)pyrazine-2-carboxamido)phenylsulfonyl)methylphosphonate]",D (D=<1000%)
6,"COP(=O)(CS(=O)(=O)c1ccc(NC(=O)c2nc(-c3ccc(C)c(O)c3)cnc2N)cc1)OC [SU20668-0496, dimethyl (4-(3-amino-6-(3-hydroxy-4-methylphenyl)pyrazine-2-carboxamido)phenylsulfonyl)methylphosphonate]",C (C=199-1000%)
7,"CC(=O)NS(=O)(=O)c1ccc(NC(=O)c2nc(-c3ccc(C(N)=O)cc3)cnc2N)cc1 [SU20668-0342, N-(4-(N-acetylsulfamoyl)phenyl)-3-amino-6-(4-carbamoylphenyl)pyrazine-2-carboxamide]",D (D=<1000%)
8,"CCO[P@@](C)(=O)CS(=O)(=O)c1ccc(NC(=O)c2nc(-c3ccc(C)cc3)cnc2N)cc1 [SU20668-0517, (R)-ethyl (4-(3-amino-6-p-tolylpyrazine-2-carboxamido)phenylsulfonyl)methyl(methyl)phosphinate]",B (B=399-2000%)
9,Cc1ccc(-c2cnc(N)c(C(=O)Nc3ccc4c(c3)CNS4(=O)=O)n2)cc1 [SU20668-0288],D (D=<1000%)
10,"CCOP(=O)(OCC)C(C)S(=O)(=O)c1ccc(NC(=O)c2nc(-c3ccc(C)cc3)cnc2N)cc1 (stereo not drawn) [SU20668-0505, diethyl 1-(4-(3-amino-6-p-tolylpyrazine-2-carboxamido)phenylsulfonyl)ethylphosphonate]",A (A=>4000%)
11,"CCOP(=O)(NS(=O)(=O)c1ccc(NC(=O)c2nc(-c3ccc(C)cc3)cnc2N)cc1)OCC [SU20668-0475, diethyl 4-(3-amino-6-p-tolylpyrazine-2-carboxamido)phenylsulfonylphosphoramidate]",B (B=399-2000%)
12,"CCOP(=O)(CS(=O)(=O)c1ccc(NC(=O)c2nc(-c3ccc(C(F)(F)F)cc3)cnc2N)cc1)OCC [SU20668-0488, diethyl (4-(3-amino-6-(4-(trifluoromethyl)phenyl)pyrazine-2-carboxamido)phenylsulfonyl)methylphosphonate]",D (D=<1000%)

# Other lines, results leading:
row,LKB1 % Act. Increase,SMILES
1,C (C=199-1000%),"CC(=O)NS(=O)(=O)c1ccc(NC(=O)c2nc(-c3ccncc3F)cnc2N)cc1 [SU20668-0374, N-(4-(N-acetylsulfamoyl)phenyl)-3-amino-6-(3-fluoropyridin-4-yl)pyrazine-2-carboxamide]"
2,C (C=199-1000%),"CC(=O)NS(=O)(=O)c1ccc(NC(=O)c2nc(-c3ccc4cc[nH]c4c3)cnc2N)cc1 [SU20668-0345, N-(4-(N-acetylsulfamoyl)phenyl)-3-amino-6-(1H-indol-6-yl)pyrazine-2-carboxamide]"
3,D (D=<1000%),"CC(=O)NS(=O)(=O)c1ccc(NC(=O)c2nc(-c3ccc(C4CCCN4)cc3)cnc2N)cc1 (stereo not drawn) [SU20668-0340, N-(4-(N-acetylsulfamoyl)phenyl)-3-amino-6-(4-(pyrrolidin-2-yl)phenyl)pyrazine-2-carboxamide]"
4,C (C=199-1000%),"Cc1ccc(-c2cnc(N)c(C(=O)Nc3ccc(S(C)(=O)=O)cc3)n2)cc1 [SU20668-0293, 3-amino-N-(4-(methylsulfonyl)phenyl)-6-p-tolylpyrazine-2-carboxamide]"
5,C (C=199-1000%),"CC(=O)NS(=O)(=O)c1ccc(NC(=O)c2nc(-c3ccc4cn[nH]c4c3)cnc2N)cc1 [SU20668-0343, N-(4-(N-acetylsulfamoyl)phenyl)-3-amino-6-(1H-indazol-6-yl)pyrazine-2-carboxamide]"
6,D (D=<1000%),"Cc1ccc(-c2cnc(N)c(C(=O)Nc3ccc(S(=O)(=O)NS(C)(=O)=O)cc3)n2)cc1 [SU20668-0470, 3-amino-N-(4-(N-(methylsulfonyl)sulfamoyl)phenyl)-6-p-tolylpyrazine-2-carboxamide]"
7,C (C=199-1000%),"CNS(=O)(=O)c1ccc(NC(=O)c2nc(-c3ccc(C)cc3)cnc2N)cc1 [SU20668-0286, 3-amino-N-(4-(N-methylsulfamoyl)phenyl)-6-p-tolylpyrazine-2-carboxamide]"
8,C (C=199-1000%),"CC(=O)NS(=O)(=O)c1ccc(NC(=O)c2nc(-c3csc4ccccc34)cnc2N)cc1 [SU20668-0376, N-(4-(N-acetylsulfamoyl)phenyl)-3-amino-6-(benzo[b]thiophen-3-yl)pyrazine-2-carboxamide]"
9,D (D=<1000%),"Cc1ccc(-c2cnc(N)c(C(=O)Nc3ccc(C(N)=O)cc3)n2)cc1 [SU20668-0280, 3-amino-N-(4-carbamoylphenyl)-6-p-tolylpyrazine-2-carboxamide]"
10,C (C=199-1000%),"CS(=O)(=O)c1ccc(NC(=O)c2nc(-c3ccc(S(C)(=O)=O)cc3)cnc2N)cc1 [SU20668-0317, methyl 3-amino-N,6-bis(4-(methylsulfonyl)phenyl)pyrazine-2-carboxamide]"
11,D (D=<1000%),"CC(=O)NS(=O)(=O)c1ccc(NC(=O)c2nc(-c3cccc(C(N)=O)c3)cnc2N)cc1 [SU20668-0341, N-(4-(N-acetylsulfamoyl)phenyl)-3-amino-6-(3-carbamoylphenyl)pyrazine-2-carboxamide]"
12,D (D=<1000%),"Cc1ccc(-c2cnc(N)c(C(=O)Nc3ccc(C(=O)O)nc3)n2)cc1 [SU20668-0300, 5-(3-amino-6-p-tolylpyrazine-2-carboxamido)picolinic acid]"
13,C (C=199-1000%),"CC(=O)NS(=O)(=O)c1ccc(NC(=O)c2nc(-c3cnc(C)nc3)cnc2N)cc1 [SU20668-0369, N-(4-(N-acetylsulfamoyl)phenyl)-3-amino-6-(2-methylpyrimidin-5-yl)pyrazine-2-carboxamide]"
14,C (C=199-1000%),"Cc1ccc(-c2cnc(N)c(C(=O)Nc3ccc(C(=O)OC(C)(C)C)c(F)c3)n2)cc1 [SU20668-0308, tert-butyl 4-(3-amino-6-p-tolylpyrazine-2-carboxamido)-2-fluorobenzoate]"
15,D (D=<1000%),"Cc1ccc(-c2cnc(N)c(C(=O)Nc3ccc(S(N)(=O)=O)nc3)n2)cc1 [SU20668-0304, 3-amino-N-(6-sulfamoylpyridin-3-yl)-6-p-tolylpyrazine-2-carboxamide]"
16,D (D=<1000%),"Cc1ccc(-c2cnc(N)c(C(=O)Nc3ccc(C(=O)NS(C)(=O)=O)cc3)n2)cc1 [SU20668-0478, 3-amino-N-(4-(methylsulfonylcarbamoyl)phenyl)-6-p-tolylpyrazine-2-carboxamide]"
17,B (B=399-2000%),"Cc1ccc(-c2cnc(N)c(C(=O)Nc3ccc(S(=O)(=O)NC4(C)COC4)cc3)n2)cc1 [SU20668-0510, 3-amino-N-(4-(N-(3-methyloxetan-3-yl)sulfamoyl)phenyl)-6-p-tolylpyrazine-2-carboxamide]"
18,D (D=<1000%),"Cc1ccc(-c2cnc(N)c(C(=O)Nc3ccc(S(=O)(=O)C(F)(F)F)cc3)n2)cc1 [SU20668-0292, 3-amino-6-p-tolyl-N-(4-(trifluoromethylsulfonyl)phenyl)pyrazine-2-carboxamide]"
